Measurements reported in US9150568B2, “Compositions and methods for modulating FXR” (NOVARTIS AG, priority 2010, dated 2015).
pEC50: −log10 of the molar value.

Biological target: T1, human Farnesoid X Receptor (FXR) ligand binding domain (GST-FXR LBD) (Homo sapiens, UniProt Q96RI1)
T1 construct: purchased Invitrogen
T1 sequence (Q96RI1 193-472 isoform Q96RI1-2): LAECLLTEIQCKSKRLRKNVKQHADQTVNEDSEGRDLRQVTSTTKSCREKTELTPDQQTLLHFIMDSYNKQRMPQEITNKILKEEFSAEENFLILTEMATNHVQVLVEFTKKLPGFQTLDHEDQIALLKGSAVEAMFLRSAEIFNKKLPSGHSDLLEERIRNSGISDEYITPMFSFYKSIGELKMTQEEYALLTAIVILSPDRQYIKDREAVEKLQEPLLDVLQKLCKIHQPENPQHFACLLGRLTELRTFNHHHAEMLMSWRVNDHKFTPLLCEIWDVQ
Assay: Human GST-FXR LBD co-activator interaction assay (HTRF)
Type: biochemical
Settings: GST-FXR LBD / biotin-SRC-1 peptide FRET; response relative to GW4064; read-out: FXR Co-activator interaction assay (EC50)
From the text: Human GST-FXR LBD Co-activator interaction Assay. The FXR HTRF assay is a biochemical assay measuring the interaction between FXR and a coactivator protein (SRC1). The ligand-induced interaction with a coactivator protein is a critical step in transcriptional activation by FXR. Thus, this is an assay designed to measure FXR agonist activity of compounds.
The ligand-dependent interaction between GST-FXR LBD and a peptide derived from Steroid Receptor Coactivator-1 (SRC-1) was monitored by Fluorescence Resonance Energy Transfer (FRET). […] Test compounds (in DMSO solution) and detection reagents (anti-GST-Cryptate labeled antibody and Streptavidin-XL665 conjugate; CisBio) were added in assay buffer containing 50 mM KF.
A negative control (without Streptavidin-XL665) was run with each assay and represented the background fluorescence. A reference FXR agonist, GW4064, was included in each experiment as positive control. The efficacy of each test compound was compared to that of GW4064. At each concentration, the relative activity of the test compound was expressed as Response %=(Rsample−RDMSO)/(Rpositive−RDMSO), where Rsample is the HTRF response (expressed in Delta F %) for the test compound, Rpositive is the maximal response for GW4064 at saturating concentrations, and RDMSO is the response for DMSO control. The EC50 values were calculated using GraphPad Prism (GraphPad Software) using non-linear regression curve fit (log(agonist) vs. response—variable slope (four parameters)).

Row | SMILES | pEC50
1 | Cn1nc(C(=O)O)c2ccc(N3[C@@H]4CC[C@H]3C[C@@H](OCc3c(-c5ccccc5C(F)(F)F)noc3C3CC3)C4)cc21 [Example 28-26] | 8.92
2 | Cc1nc(N2[C@@H]3CC[C@H]2C[C@@H](OCc2c(-c4c(F)cccc4F)noc2C2CC2)C3)ccc1C(=O)O [Example 30-47] | 6.92
3 | O=C(O)c1ccc2nc(N3[C@@H]4CC[C@H]3C[C@@H](OCc3c(-c5ccc(F)cc5)noc3C3CC3)C4)sc2c1 [Example 30-6] | 7.38
4 | COC(=O)c1cccc(N2C3CC[C@H]2CC(OCc2c(-c4ccccc4OC(F)F)noc2C2CC2)C3)n1 (stereo partly drawn) [Example 22-3] | 8.00
5 | COC(=O)c1cnc(N2C3CC[C@H]2CC(OCc2c(-c4c(F)cccc4F)noc2C2CC2)C3)cn1 (stereo partly drawn) [Example 22-15A] | 6.89
6 | Cc1cc(C(=O)O)nc(N2C3CC[C@H]2CC(OCc2c(-c4cccc(F)c4F)noc2C2CC2)C3)n1 (stereo partly drawn) [Example 30-66] | 6.66
7 | COC(=O)c1cnc(N2C3CC[C@H]2CC(OCc2c(-c4ccccc4OC(F)F)noc2C2CC2)C3)c(C)c1 (stereo partly drawn) [Example 22-7A] | 8.00
8 | COC(=O)c1cnc(N2C3CC[C@H]2C[C@H](OCc2c(-c4ccccc4OC(F)(F)F)noc2C2CC2)C3)cc1C(F)(F)F [Example 19-3A] | 7.05
9 | O=C(O)c1ccc(N2C3CC[C@H]2CC(OCc2c(-c4ccccc4OC(F)F)noc2C2CC2)C3)nn1 (stereo partly drawn) [Example 22-9B] | 7.77
10 | Cc1nc(N2[C@@H]3CC[C@H]2C[C@@H](OCc2c(-c4cccc(F)c4)noc2C2CC2)C3)ccc1C(=O)O [Example 30-50] | 6.15
11 | COc1cc(C(=O)O)cc2sc(N3[C@@H]4CC[C@H]3C[C@@H](OCc3c(-c5ccccc5F)noc3C3CC3)C4)nc12 [Example 30-67] | 9.30
12 | O=C(O)c1ccc(N2C3CC[C@H]2CC(OCc2c(-c4ccccc4C(F)(F)F)noc2C2CC2)C3)c(F)c1 (stereo partly drawn) [Example 25-5B] | 9.00
13 | Cc1cc(C(=O)O)nc(N2C3CC[C@H]2CC(OCc2c(-c4ccccc4F)noc2C2CC2)C3)n1 (stereo partly drawn) [Example 30-68] | 7.89
14 | COC(=O)c1cnc(N2C3CC[C@H]2CC(OCc2c(-c4c(F)cccc4F)noc2C2CC2)C3)nc1 (stereo partly drawn) [Example 22-14A] | 7.15
15 | O=C(O)c1cnc(N2C3CC[C@H]2CC(OCc2c(-c4ccccc4C(F)(F)F)noc2C2CC2)C3)s1 (stereo partly drawn) [Example 30-76] | 7.80
16 | CCOC(=O)c1ccc2nc(N3C4CC[C@H]3C[C@H](OCc3c(-c5ccccc5C(F)(F)F)noc3C3CC3)C4)sc2c1 [Example 6-1A] | 7.20
17 | O=C(O)c1ccc2nc(N3C4CC[C@H]3C[C@H](OCc3c(-c5ccccc5OC(F)F)noc3C3CC3)C4)sc2c1 [Example 6-2B] | 9.44
18 | CCOC(=O)c1ccc2nc(N3C4CC[C@H]3CC(OCc3c(-c5ccccc5OC(F)(F)F)noc3C3CC3)C4)sc2c1 (stereo partly drawn) [Example 3A, ethyl 2-(3-((5-cyclopropyl-3-(2-(trifluoromethoxy)phenyl)isoxazol-4-yl)methoxy)-8-azabicyclo[3.2.1]octan-8-yl)benzo[d]thiazole-6-carboxylate] | 7.70
19 | O=C(O)c1ccc(N2C3CC[C@H]2CC(OCc2c(-c4ccccc4OC(F)(F)F)noc2C2CC2)C3)cc1 (stereo partly drawn) [Example 28-6] | 8.77
20 | COC(=O)c1cc(F)c(N2C3CC[C@H]2CC(OCc2c(-c4ccccc4OC(F)(F)F)noc2C2CC2)C3)c(F)c1 (stereo partly drawn) [Example 24-1A] | 7.40
21 | O=C(O)c1cnn2ccc(N3[C@@H]4CC[C@H]3C[C@@H](OCc3c(-c5ccccc5OC(F)(F)F)noc3C3CC3)C4)cc12 [Example 32-2] | 8.40
22 | NC(=O)c1ccc(N2C3CC[C@H]2C[C@H](OCc2c(-c4ccccc4OC(F)(F)F)noc2C2CC2)C3)nc1 [Example 5-2] | 8.42
23 | COc1cc(C(=O)O)cc2sc(N3C4CC[C@H]3CC(OCc3c(-c5cccc(F)c5F)noc3C3CC3)C4)nc12 (stereo partly drawn) [Example 30-64] | 8.15

Row | SMILES | pEC50
24 | Cc1cc(C(=O)O)cc2sc(N3[C@@H]4CC[C@H]3C[C@@H](OCc3c(-c5ccc(F)cc5F)noc3C3CC3)C4)nc12 [Example 30-38] | 8.74
25 | COC(=O)c1ccc(N2[C@@H]3CC[C@H]2C[C@@H](OCc2c(-c4c(F)cccc4F)noc2C2CC2)C3)nc1 [Example 22-13A] | 7.10
26 | COC(=O)c1ccnc(N2C3CC[C@H]2C[C@H](OCc2c(-c4ccccc4OC(F)(F)F)noc2C2CC2)C3)n1 [Example 19-6A] | 7.30
27 | O=C(O)c1ccnc(N2C3CC[C@H]2CC(OCc2c(-c4ccccc4C(F)(F)F)noc2C2CC2)C3)n1 (stereo partly drawn) [Example 21-5B] | 8.00
28 | Cc1cc(C(=O)O)nc(N2C3CC[C@H]2CC(OCc2c(-c4cccc(F)c4)noc2C2CC2)C3)n1 (stereo partly drawn) [Example 30-10] | 6.32
29 | O=C(O)c1cccc(N2[C@@H]3CC[C@H]2C[C@@H](OCc2c(-c4ccccc4OC(F)F)noc2C2CC2)C3)n1 [Example 30-27] | 8.15
30 | O=C(O)c1cnc(N2C3CC[C@H]2C[C@H](OCc2c(-c4ccccc4OC(F)(F)F)noc2C2CC2)C3)cc1C(F)(F)F [Example 19-3B] | 8.00
31 | Cc1cccc(F)c1-c1noc(C2CC2)c1CO[C@H]1C[C@H]2CC[C@@H](C1)N2c1ccc(C(=O)O)c(C)n1 [Example 30-51] | 7.28
32 | Cc1cc(C(=O)O)cc(N2C3CC[C@H]2CC(OCc2c(-c4ccccc4C(F)(F)F)noc2C2CC2)C3)n1 (stereo partly drawn) [Example 21-1B] | 6.59
33 | COC(=O)c1ccc(N2C3CC[C@H]2CC(OCc2c(-c4c(F)cccc4F)noc2C2CC2)C3)c(F)c1 (stereo partly drawn) [Example 25-3A] | 7.10
34 | O=C(O)c1ccc(N2C3CC[C@H]2CC(OCc2c(-c4c(F)cccc4F)noc2C2CC2)C3)c(F)c1 (stereo partly drawn) [Example 25-3B] | 9.05
35 | COC(=O)c1ccnc(N2C3CC[C@H]2CC(OCc2c(-c4ccccc4C(F)(F)F)noc2C2CC2)C3)n1 (stereo partly drawn) [Example 21-5A] | 6.96
36 | Cc1cc(C(=O)O)nc(N2C3CC[C@H]2CC(OCc2c(-c4c(C)cccc4C)noc2C2CC2)C3)n1 (stereo partly drawn) [Example 30-16] | 7.62
37 | O=C(O)c1cc2ccc(N3C4CC[C@H]3CC(OCc3c(-c5ccccc5OC(F)(F)F)noc3C3CC3)C4)cc2o1 (stereo partly drawn) [Example 28-15] | 8.47
38 | COC(=O)c1cc(C)nc(N2C3CC[C@H]2CC(OCc2c(-c4ccccc4C(F)(F)F)noc2C2CC2)C3)c1 (stereo partly drawn) [Example 21-1A] | 6.52
39 | O=C(O)c1ccnc(N2C3CC[C@H]2CC(OCc2c(-c4ccccc4C(F)(F)F)noc2C2CC2)C3)c1 (stereo partly drawn) [Example 20B, 2-(3-((5-cyclopropyl-3-(2-(trifluoromethyl)phenyl)isoxazol-4-yl)methox)-8-azabicyclo[3.2.1]octan-8-yl)isonicotinic acid] | 6.48
40 | O=C(O)c1cnc(N2[C@@H]3CC[C@H]2C[C@@H](OCc2c(-c4c(F)cccc4F)noc2C2CC2)C3)c(C2CC2)c1 [Example 22-17B] | 8.52
41 | O=C(O)c1cnn2ccc(N3C4CC[C@H]3CC(OCc3c(-c5ccccc5OC(F)(F)F)noc3C3CC3)C4)nc12 (stereo partly drawn) [Example 30-59] | 7.04
42 | O=C(O)c1ccc2nc(N3C4CC[C@H]3C[C@H](OCc3c(-c5c(F)cccc5F)noc3C3CC3)C4)sc2c1 [Example 6-5B] | 8.25
43 | Cc1nc(N2C3CC[C@H]2CC(OCc2c(-c4ccccc4OC(F)(F)F)noc2C2CC2)C3)ccc1C(=O)O (stereo partly drawn) [Example 30-44] | 8.10
44 | COc1cc(C(=O)O)cc2sc(N3C4CC[C@H]3C[C@H](OCc3c(C5CC5)noc3C3CC3)C4)nc12 [Example 12-3] | 7.40
45 | Cn1nc(C(=O)O)c2cc(N3C4CC[C@H]3CC(OCc3c(-c5ccccc5OC(F)(F)F)noc3C3CC3)C4)ccc21 (stereo partly drawn) [Example 28-16] | 7.20
